Experimental data from patent publication US9145373B2, “Certain kynurenine-3-monooxygenase inhibitors, pharmaceutical compositions, and methods of use thereof” (CHDI FOUNDATION, INC., priority 2008, dated 2015).

Target: T1, KMO mouse enzyme (Mus musculus, UniProt Q91WN4)
T1 construct: KMO enzyme prepared at Evotec from mouse liver (4-6 weeks old) via mitochondria isolation; from tissue; host or cells: mouse liver (4-6 weeks old), mitochondria isolation, prepared at Evotec
Experiment: KMO mouse enzyme assay: L-Kynurenine hydroxylation to 3-Hydroxy-Kynurenine monitored by LC/MS (MRM)
Format: biochemical
Details: compound at 10 μM, KMO enzyme from mouse liver mitochondria; for inhibition at 10 µM: read-out: INH.Mouse @ 10 μM
Method in brief: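 Enzyme is a mitochondrial preparation from 4-6-week-old mouse liver, with L-kynurenine as substrate in potassium phosphate buffer, pH 7.4. 3-Hydroxy-kynurenine formed is quantified by LC/MS using multiple reaction monitoring. Compound stocks were 10 mM in DMSO.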

T1 sequence (Q91WN4 whole entry): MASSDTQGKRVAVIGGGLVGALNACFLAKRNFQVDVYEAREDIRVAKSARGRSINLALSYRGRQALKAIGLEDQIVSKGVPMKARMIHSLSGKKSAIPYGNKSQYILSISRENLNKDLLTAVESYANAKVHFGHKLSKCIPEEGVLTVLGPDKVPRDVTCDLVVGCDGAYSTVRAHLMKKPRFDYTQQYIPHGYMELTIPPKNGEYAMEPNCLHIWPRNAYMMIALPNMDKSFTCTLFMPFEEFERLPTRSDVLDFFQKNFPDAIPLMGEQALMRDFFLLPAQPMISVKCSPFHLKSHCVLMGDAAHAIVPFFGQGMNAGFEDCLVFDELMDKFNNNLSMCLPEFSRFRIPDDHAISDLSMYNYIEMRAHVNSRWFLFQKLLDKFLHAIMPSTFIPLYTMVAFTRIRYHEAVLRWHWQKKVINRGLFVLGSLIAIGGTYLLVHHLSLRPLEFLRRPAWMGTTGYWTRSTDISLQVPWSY

inhibition at 10 µM	INH.Mouse @ 10 μM	Compound
83.9%	–	O=C(c1cc(-c2cccc(Cl)c2)ncn1)N1CC[C@@H](O)C1 [[6-(3-Chloro-phenyl)-pyrimidin-4-yl]-((R)-3-hydroxy-pyrrolidin-1-yl)-methanone]
101%	–	COC(=O)c1cc(-c2cc(Cl)cc(Cl)c2)ncn1 [6-(3,5-Dichloro-phenyl)-pyrimidine-4-carboxylic acid methyl ester]
90.1%	–	O=C(Nc1ccncc1)c1cc(-c2ccc(Cl)c(Cl)c2)ncn1 [6-(3,4-Dichloro-phenyl)-pyrimidine-4-carboxylic acid pyridin-4-ylamide]
100%	–	O=C(Nc1ncccn1)c1cc(-c2cccc(Cl)c2)ncn1 [6-(3-Chloro-phenyl)-pyrimidine-4-carboxylic acid pyrimidin-2-ylamide]
100%	–	COc1cncc(NC(=O)c2cc(-c3ccc(Cl)c(Cl)c3)ncn2)c1 [6-(3,4-Dichloro-phenyl)-pyrimidine-4-carboxylic acid (5-methoxy-pyridin-3-yl)-amide]
100%	–	COc1ccc(NC(=O)c2cc(-c3cccc(Cl)c3)ncn2)cc1 [6-(3-Chloro-phenyl)-pyrimidine-4-carboxylic acid (4-methoxy-phenyl)-amide]
97.4%	–	O=C(Nc1nncs1)c1cc(-c2cccc(Cl)c2)ncn1 [6-(3-Chloro-phenyl)-pyrimidine-4-carboxylic acid [1,3,4]thiadiazol-2-ylamide]
101%	–	COC(=O)c1cc(-c2ccc(Cl)c(Cl)c2)ncn1 [6-(3,4-Dichloro-phenyl)-pyrimidine-4-carboxylic acid methyl ester]
100%	–	COC(=O)c1cc(-c2ccc(OC)c(Cl)c2)ncn1 [6-(3-Chloro-4-methoxy-phenyl)-pyrimidine-4-carboxylic acid methyl ester]
100%	–	O=C(Nc1ccon1)c1cc(-c2cccc(Cl)c2)ncn1 [6-(3-Chloro-phenyl)-pyrimidine-4-carboxylic acid isoxazol-3-ylamide]
100%	–	COc1ccccc1NC(=O)c1cc(-c2cccc(Cl)c2)ncn1 [6-(3-Chloro-phenyl)-pyrimidine-4-carboxylic acid (2-methoxy-phenyl)-amide]
100%	–	COc1cncc(NC(=O)c2cc(-c3cccc(Cl)c3)ncn2)c1 [6-(3-Chloro-phenyl)-pyrimidine-4-carboxylic acid (5-methoxy-pyridin-3-yl)-amide]
100%	–	Cc1ccc(N(C)C(=O)c2cc(-c3cccc(Cl)c3)ncn2)cc1 [6-(3-Chloro-phenyl)-pyrimidine-4-carboxylic acid methyl-p-tolyl-amide]
85.6%	–	Cc1ccc(NC(=O)c2cc(-c3cccc(Cl)c3)ccn2)cc1 [4-(3-Chloro-phenyl)-pyridine-2-carboxylic acid p-tolylamide]
77.5%	–	COC(=O)c1cc(-c2cccc(OC)c2)ncn1 [6-(3-Methoxy-phenyl)-pyrimidine-4-carboxylic acid methyl ester]
96.3%	–	COC(=O)c1cc(-c2cccc(C)c2)ncn1 [6-m-Tolyl-pyrimidine-4-carboxylic acid methyl ester]

inhibition at 10 µM	INH.Mouse @ 10 μM	Compound
89.1%	–	O=C(Nc1ccc(C(F)(F)F)nc1)c1cc(-c2cccc(Cl)c2)ncn1 [6-(3-Chloro-phenyl)-pyrimidine-4-carboxylic acid (6-trifluoromethyl-pyridin-3-yl)-amide]
80.3%	–	O=C(O)c1cc(-c2cc(C(F)(F)F)ccc2F)ncn1 [6-(2-Fluoro-5-trifluoromethyl-phenyl)-pyrimidine-4-carboxylic acid]
100%	–	O=C(Nc1cncnc1)c1cc(-c2cccc(Cl)c2)ncn1 [6-(3-Chloro-phenyl)-pyrimidine-4-carboxylic acid pyrimidin-5-ylamide]
76.9%	–	CC1Cc2ccccc2N1C(=O)c1cc(-c2cccc(Cl)c2)ncn1 (centres unmarked) [[6-(3-Chloro-phenyl)-pyrimidin-4-yl]-(2-methyl-2,3-dihydro-indol-1-yl)-methanone]
100%	–	O=C(O)c1cc(-c2cccc(Cl)c2)ccn1 [4-(3-Chloro-phenyl)-pyridine-2-carboxylic acid]
95.2%	–	CN(C(=O)c1cc(-c2cccc(Cl)c2)ncn1)c1cccnc1 [6-(3-Chloro-phenyl)-pyrimidine-4-carboxylic acid methyl-pyridin-3-yl-amide]
106%	–	COC(=O)c1cc(-c2cccc(Cl)c2)ncn1 [6-(3-Chloro-phenyl)-pyrimidine-4-carboxylic acid methyl ester]
100%	–	O=C(NCc1ccncc1)c1cc(-c2cccc(Cl)c2)ncn1 [6-(3-Chloro-phenyl)-pyrimidine-4-carboxylic acid (pyridin-4-ylmethyl)-amide]
100%	–	COC(=O)c1cc(-c2cccc(F)c2)ncn1 [6-(3-Fluoro-phenyl)-pyrimidine-4-carboxylic acid methyl ester]
95.5%	–	COC(=O)c1cc(-c2ccc(Cl)c(Cl)c2)nc(C)n1 [6-(3,4-Dichloro-phenyl)-2-methyl-pyrimidine-4-carboxylic acid methyl ester]
59.7%	–	O=C(Nc1ccccc1)c1cc(-c2cc(Cl)cc(Cl)c2)ccn1 [4-(3,5-Dichloro-phenyl)-pyridine-2-carboxylic acid phenylamide]
100%	–	COC(=O)c1cc(-c2ccc(F)c(F)c2)ncn1 [6-(3,4-Difluoro-phenyl)-pyrimidine-4-carboxylic acid methyl ester]
100%	–	COC(=O)c1ncnc(-c2ccc(Cl)c(Cl)c2)c1F [6-(3,4-Dichloro-phenyl)-5-fluoro-pyrimidine-4-carboxylic acid methyl ester]
100%	–	Cn1cc(NC(=O)c2cc(-c3cccc(Cl)c3)ncn2)cn1 [6-(3-Chloro-phenyl)-pyrimidine-4-carboxylic acid (1-methyl-1H-pyrazol-4-yl)-amide]
92.6%	–	O=C(c1cc(-c2ccc(Cl)c(Cl)c2)ncn1)N1CCCc2ccccc21 [[6-(3,4-Dichloro-phenyl)-pyrimidin-4-yl]-(3,4-dihydro-2H-quinolin-1-yl)-methanone]
–	87.7	CN1CCN(c2ccc(NC(=O)c3cc(-c4cccc(Cl)c4)ncn3)cc2)CC1 [6-(3-Chloro-phenyl)-pyrimidine-4-carboxylicacid[4-(4-methyl-piperazin-1-yl)-phenyl]-amide]
